Assays:
[1] = target: T1, Gag-Pol polyprotein [600-1027,P835L]/[600-1155,P835L] (Human immunodeficiency virus 1, UniProt P03366, P835L); test: HIV-1 RT Assay
T1 construct: 600-1027; 600-1155
Description: (§1) The IC50 of reverse transcriptase is the concentration that inhibits 50% of recombinant HIV-1 RT RNA-directed DNA polymerase activity in vitro.

[2] = target: T2, Gag-Pol polyprotein [600-1027,Y787L]/[600-1155,Y787L] (Human immunodeficiency virus 1, UniProt P03366, Y787L); test: HIV-1 RT Assay; conditions: pH 7.8; 22 °C
T2 construct: 600-1027; 600-1155
Description: as §1

Structure (SMILES): CCN1c2ncccc2C(=O)N(C)c2ccc(-c3cc[nH]c3)nc21 [2-ethyl-9-methyl-5-(1H-pyrrol-3-yl)-2,4,9,15-tetraazatricyclo[9.4.0.0^{3,8}]pentadeca-1(11),3(8),4,6,12,14-hexaen-10-one]
- IC50 [1]: 0.13 µM
- IC50 [2]: 0.1 µM

Structure (SMILES): CCN1c2ncccc2C(=O)N(C)c2ccc(-c3c[nH]c4cnccc34)nc21 [2-ethyl-9-methyl-5-{1H-pyrrolo[2,3-c]pyridin-3-yl}-2,4,9,15-tetraazatricyclo[9.4.0.0^{3,8}]pentadeca-1(11),3(8),4,6,12,14-hexaen-10-one]
- IC50 [1]: < 0.001 µM

Source: BindingDB's records for doi:10.1021/jm960837y (Boehringer Ingelheim Pharmaceuticals, 1997)
